Values quoted from earlier work as cited in patent US20230295082A1, “MODIFIED EZETIMIBE DRUG FOR CANCER TREATMENT” (University of South Africa, priority 2020, published 2023).

Columns and labels:
Mdm2 p53-binding domain = Mdm2 p53-binding domain (Homo sapiens, UniProt Q00987); settings: applicant's previous work
[1] = tested on: cancer cell lines, especially those that overexpress Mdm2

Chain of Mdm2 p53-binding domain (Q00987 26-109 limits assumed): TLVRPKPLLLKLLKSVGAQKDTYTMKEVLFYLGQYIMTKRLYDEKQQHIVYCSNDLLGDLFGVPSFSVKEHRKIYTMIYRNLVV

binding to the Mdm2 hydrophobic pocket relative to nutlins (Mdm2 p53-binding domain): bind more strongly than nutlins
SMILES: O=C1[C@H](CC[C@H](O)c2ccc(F)cc2)[C@@H](c2ccc(O)cc2)N1c1ccc(F)cc1 [ezetimibe]
toxicity to cancer cell lines [1]: toxic to cancer cell lines
